Article PMC8353992 (Journal of medicinal chemistry, 2021)

Assays:
[1] = for decrease in CLint compared to 36: human, rat, s9
SARS-CoV-2 3CL^pro = SARS-CoV-2 3CL^pro (Severe acute respiratory syndrome coronavirus 2, UniProt P0DTD1); type: biochemical
[2] = human, pH 7.4

Structure (SMILES): O=C(Nc1ccc(N(Cc2ccsc2)C(=O)Cn2nnc3ccccc32)cc1)C1CC1 [Compound 1, reference compound]
- microsomal clearance ([1]; microsomes): exceptionally high

Structure (SMILES): O=C(Cn1nnc2ccccc21)N(Cc1ccsc1)c1ccc(-c2cccnc2)cc1 [Compound 8, 2-(1H-Benzo[d][1,2,3]triazol-1-yl)-N-(4-(pyridin-3-yl)phenyl)-N-(thiophen-3-ylmethyl)acetamide]
- ligand efficiency (LE) (SARS-CoV-2 3CL^pro): 0.27

Structure (SMILES): O=C(Cn1nnc2ccccc21)N(Cc1cccc(Cl)c1)c1ccc(-c2cn[nH]c2)cc1 [Compound 36, N-(4-(1H-Pyrazol-4-yl)phenyl)-2-(1H-benzo[d][1,2,3]triazol-1-yl)-N-(3-chlorobenzyl)acetamide]
- M1 metabolite formation (oxidation of the benzylic 3-chlorophenyl ring) [2]: 60%
- M3 metabolite formation (cleavage of the 3-chlorobenzyl group) [2]: 7%

Structure (SMILES): O=C(Cc1cccnc1)N(Cc1cccc(Cl)c1)c1ccc(-c2cn[nH]c2)cc1 [Compound 42, N-[(3-Chlorophenyl)methyl]-N-[4-(1H-pyrazol-4-yl)phenyl]-2-(3-pyridyl)acetamide]
- decrease in CLint compared to 36 [1]: 2 fold

Structure (SMILES): O=C(Cc1cncnc1)N(Cc1cccc(Cl)c1)c1ccc(-c2cn[nH]c2)cc1 [Compound 43, N-[(3-Chlorophenyl)methyl]-N-[4-(1H-pyrazol-4-yl)phenyl]-2-pyrimidin-5-yl-acetamide]
- decrease in CLint compared to 36 [1]: 4 fold
